Data on 1 molecule can be found in PMC4601023, “Novel anticancer agent, SQAP, binds to focal adhesion kinase and modulates its activity” (Scientific Reports, 2015).

For assay [1], the system named is paxillin phosphorylation at Y118 in A549. The assay is described as follows: Paxillin phosphorylation in A549, Western blotting. The settings on record: A549, 21 h treatment, 10 µM. The format is cell-based, human. The method, then: Fibronectin is a glycoprotein located in the extracellular matrix that binds to integrins. […] A549 lung cancer cells have been used before for studying cell migration because of their metastatic model potential. A549 cells are also one of the tumor cell lines sensitive to SQMG[9]. Therefore, we studied the phosphorylation of FAK in A549 cells (Fig. 5C,D). SQAP could inhibit the phosphorylation of FAK at Y397 and Y925 after 1 h treatment in a dose dependent manner. […] We also examined paxillin and Akt phosphorylation in A549 as downstream targets of FAK. […] We hypothesize that SQAP diminish on Akt phosphorylation being more readily in A549 cancer cells than in HUVEC endothelial cells might be due to a higher Akt basal activity on cancer cells.
Cells were harvested and solubilized in RIPA buffer (20 mM Tris-HCl, pH 7.5, 1% Sodium deoxycholate, 150 mM NaCl, 5 mM EDTA, 1% Triton X-100, 0.1% SDS, 0.1%, 1 mM PMSF, 1 mM vanadate and 1 μg/mL leupeptin). Protein quantification was determined using the DC protein assay kit (Bio-Rad, Hercules, CA, USA). A total of 15 μg of each protein sample were separated by SDS–PAGE gels and blotted onto polyvinylidene difluoride membranes (Merck, Kenilworth, NJ, US). […]

Assay [2] deals with VEGF mRNA expression in A549 cells. The experiment in a line: VEGF mRNA expression, quantitative real-time RT-PCR, A549. The note with it: A549, 6 h, increased concentration of SQAP. The format is cell-based, human. The method, then: Figure 5 Effect of SQAP on FAK phosphorylation. The level of FAK phosphorylated at Y397 and Y925 was evaluated by Western blotting. (A) HUVEC cells were serum-depleted for 20 h before treatment with SQAP or vehicle for 30 min followed by treatment with or without VEGF (50 ng/mL) for 30 min. (B) HUVEC cells were cultured as stated in section A and then treated with SQAP, SQMG or SQP. (C) A549 cells were serum-deprived for 48 h before pretreatment with SQAP or vehicle followed by treatment with or without fibronectin (10 μg/mL) for 30 min. (D) A549 cells were cultured as stated in section C and then treated with SQAP, SQMG or SQP. (E–F) HUVEC and A549 cells were treated with SQAP for 6 h before adding an RNA stabilization reagent and prepared for Quantitative real-time RT-PCR.
Total RNA was prepared using an RNeasy Mini Kit (QIAGEN Inc., Hilden, Germany) according to the manufacturer’s instructions and then reverse-transcribed to cDNA with Transcriptor First Strand cDNA Synthesis Kit (Roche Applied Science, Mnnheim, Germany). Measurement of gene expression by quantitative analysis was performed using the LightCycler system (Roche Applied Science). Quantitative real-time RT-PCR analysis of β-actin, TSP-1 and VEGF-A expression were performed using the LightCycler FastStart DNA MasterPLUS SYBR Green I system (Roche Applied Science). […]

`CCCCCCCCCCCCCCCCCC(=O)OCCCO[C@H]1O[C@H](CS(=O)(=O)O)[C@@H](O)[C@H](O)[C@H]1O` [SQAP, sulfoquynovosylacylpropanediol]: the “paxillin phosphorylation at Y118” value in assay [1] was “inhibition of paxillin phosphorylation at Y118 took 21 h treatment”. In assay [2], the “VEGF production level (mRNA, RT-PCR)” value was “mild production decrease”.
